Laboratory results taken from patent US5656638A, “Telomerase inhibitors” (Geron Corporation, priority 1995, dated 1997).
Entries after “also recorded” stand apart in the source; their conditions may differ. Read-outs that look alike come from different tables or passages of the source.

Target: T1, telomerase (Homo sapiens, UniProt O14746)
T1 construct: placing cells, tissues, or preferably a cellular extract or other preparation containing telomerase in contact with; endogenous in cells
Test: telomerase inhibition, IC50 (Table 1)
Assay type: biochemical
Source text: One method used to identify compounds of the invention that inhibit telomerase activity involves placing cells, tissues, or preferably a cellular extract or other preparation containing telomerase in contact with several known concentrations of a test compound in a buffer compatible with telomerase activity. […] Other methods for determining the inhibitory concentration of a compound of the invention against telomerase can be employed as will be apparent to those of skill in the art based on the disclosure herein.
With the above-described methods, IC50 values for several of the compounds of the present invention were determined. The values reported in Table 1 below are only approximate values; more exact IC50 values can be obtained by repetitive testing.

[1] = Table 1, approximate values only, read-out: IC50
[2] = summary of Table 1, approximate IC50 values, read-out: IC50 (bound stated in text)

T1 sequence (O14746 whole entry): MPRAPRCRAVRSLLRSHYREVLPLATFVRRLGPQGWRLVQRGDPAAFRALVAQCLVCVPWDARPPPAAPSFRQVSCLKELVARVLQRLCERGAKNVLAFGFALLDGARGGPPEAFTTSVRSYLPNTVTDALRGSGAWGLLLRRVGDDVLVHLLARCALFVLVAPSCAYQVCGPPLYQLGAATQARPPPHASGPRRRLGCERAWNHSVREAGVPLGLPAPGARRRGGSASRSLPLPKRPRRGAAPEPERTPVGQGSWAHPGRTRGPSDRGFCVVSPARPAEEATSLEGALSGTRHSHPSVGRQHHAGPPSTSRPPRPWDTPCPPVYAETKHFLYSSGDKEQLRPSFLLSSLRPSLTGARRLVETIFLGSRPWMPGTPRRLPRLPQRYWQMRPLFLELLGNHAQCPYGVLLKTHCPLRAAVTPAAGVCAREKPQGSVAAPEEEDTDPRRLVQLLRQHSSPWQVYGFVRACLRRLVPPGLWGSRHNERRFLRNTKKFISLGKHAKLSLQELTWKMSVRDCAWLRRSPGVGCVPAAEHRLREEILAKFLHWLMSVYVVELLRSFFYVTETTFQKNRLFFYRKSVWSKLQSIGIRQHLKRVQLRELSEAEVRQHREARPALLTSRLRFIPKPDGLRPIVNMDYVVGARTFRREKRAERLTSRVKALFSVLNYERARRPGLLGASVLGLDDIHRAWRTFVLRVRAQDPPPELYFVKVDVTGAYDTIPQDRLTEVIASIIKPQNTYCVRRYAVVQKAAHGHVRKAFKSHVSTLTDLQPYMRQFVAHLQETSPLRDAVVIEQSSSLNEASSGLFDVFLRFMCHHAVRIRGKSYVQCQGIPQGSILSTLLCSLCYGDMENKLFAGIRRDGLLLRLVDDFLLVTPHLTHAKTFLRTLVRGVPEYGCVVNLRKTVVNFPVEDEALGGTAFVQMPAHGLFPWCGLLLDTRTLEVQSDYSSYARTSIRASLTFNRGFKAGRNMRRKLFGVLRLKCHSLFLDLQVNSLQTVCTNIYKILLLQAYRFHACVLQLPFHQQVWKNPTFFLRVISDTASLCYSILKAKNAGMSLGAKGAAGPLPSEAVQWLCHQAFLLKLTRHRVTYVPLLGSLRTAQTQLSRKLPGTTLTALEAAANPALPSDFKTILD
T1 sequence (O60832 whole entry partner): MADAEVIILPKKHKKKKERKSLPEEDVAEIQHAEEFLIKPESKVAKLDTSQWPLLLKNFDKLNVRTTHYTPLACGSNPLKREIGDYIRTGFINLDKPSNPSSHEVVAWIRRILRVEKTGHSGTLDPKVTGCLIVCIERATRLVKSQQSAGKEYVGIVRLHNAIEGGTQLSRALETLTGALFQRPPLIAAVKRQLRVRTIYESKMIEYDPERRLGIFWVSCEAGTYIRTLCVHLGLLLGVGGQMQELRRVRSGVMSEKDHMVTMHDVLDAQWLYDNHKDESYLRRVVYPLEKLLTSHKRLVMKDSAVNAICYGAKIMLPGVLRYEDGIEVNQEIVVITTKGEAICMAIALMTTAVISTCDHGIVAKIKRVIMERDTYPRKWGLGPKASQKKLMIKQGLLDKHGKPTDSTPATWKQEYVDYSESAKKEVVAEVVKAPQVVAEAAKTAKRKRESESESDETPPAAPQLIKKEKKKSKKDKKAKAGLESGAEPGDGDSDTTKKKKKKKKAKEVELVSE
T1 sequence (Q9NPE3 whole entry partner): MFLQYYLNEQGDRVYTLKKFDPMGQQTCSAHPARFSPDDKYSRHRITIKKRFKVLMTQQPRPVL
T1 sequence (Q9NX24 whole entry partner): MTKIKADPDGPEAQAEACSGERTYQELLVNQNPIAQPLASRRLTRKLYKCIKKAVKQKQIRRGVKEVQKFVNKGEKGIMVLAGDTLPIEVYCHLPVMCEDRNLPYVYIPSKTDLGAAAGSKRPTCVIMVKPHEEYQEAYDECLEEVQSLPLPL
T1 sequence (Q9NY12 whole entry partner): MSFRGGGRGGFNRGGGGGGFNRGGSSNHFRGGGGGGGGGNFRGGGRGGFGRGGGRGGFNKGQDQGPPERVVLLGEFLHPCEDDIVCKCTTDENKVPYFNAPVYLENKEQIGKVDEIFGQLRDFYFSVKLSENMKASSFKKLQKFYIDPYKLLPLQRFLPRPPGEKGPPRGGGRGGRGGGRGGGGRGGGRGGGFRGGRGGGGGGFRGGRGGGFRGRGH

Compound	anti-telomerase activity (in words)	IC50 [1] [µM]	IC50 [2] [µM]
Nc1c(C(=O)c2ccc(Cl)c(Cl)c2)sc2nc(C=NNc3ccc(Cl)cc3)ccc12 [Compound XII]	good anti-telomerase activity; also recorded: strong telomerase inhibitors	21	< 30
Nc1c(C(=O)c2ccc(Cl)cc2Cl)sc2nc(C=O)ccc12 [Compound VI]	particularly good anti-telomerase activity; also recorded: strong telomerase inhibitors	29	< 30
Nc1c(C(=O)c2ccc(Cl)cc2Cl)sc2nc(C=NC3C4CC5CC(C4)CC3C5)ccc12 (centres unmarked) [Compound IV]		26	
Nc1c(C(=O)c2ccc(Cl)c(Cl)c2)sc2nc(C=NC3C4CC5CC(C4)CC3C5)ccc12 (centres unmarked) [Compound V]	strong telomerase inhibitors	30	< 30
Nc1c(-c2ncc(C(F)(F)F)cc2Cl)sc2nc(C=O)ccc12 [Compound IX]	strong telomerase inhibitors	24	< 30
Cc1ccc(NN=Cc2ccc3c(N)c(C(=O)c4ccc(Br)cc4)sc3n2)cc1 [Compound XIII]	good anti-telomerase activity	18	
Nc1c(C(=O)c2ccc(Br)cc2)sc2nc(C=O)ccc12 [Compound VII]	particularly good anti-telomerase activity	48	
Nc1c(C(=O)c2ccc(Br)cc2)sc2nc(C=NC3C4CC5CC(C4)CC3C5)ccc12 (centres unmarked) [Compound III]	strong telomerase inhibitors	4	< 30
Nc1c(C(=O)c2ccc(Cl)c(Cl)c2)sc2nc(C=O)ccc12 [Compound VIII]	particularly good anti-telomerase activity; also recorded: strong telomerase inhibitors	28	< 30

The remaining lines, values ahead:

anti-telomerase activity (in words)	IC50 [1] [µM]	IC50 [2] [µM]	Compound
	42		CC(C)(C)c1ccc(-c2noc(-c3sc4nc(C=O)ccc4c3N)n2)cc1 [Compound X]
	31		Nc1c(C(=O)c2ccc(Cl)c(Cl)c2)oc2nc(C=O)ccc12 [Compound XIV]
good anti-telomerase activity	49		Cc1cc(N=Cc2ccc3c(N)c(-c4ccc(Cl)c(Cl)c4)oc3n2)n[nH]1 [Compound XV]
good anti-telomerase activity	42		Nc1c(C(=O)c2ccc(Cl)c(Cl)c2)sc2nc(C=NNc3ccccc3)ccc12 [Compound XI]
